{"source": "PubChem BioAssay (NCI)", "assay_in_all_cases": "DTP human tumour cell line panel, 48 h", "key": {"BT-549 breast": {"tested_on": "BT-549 breast"}, "SK-MEL-5 melanoma": {"tested_on": "SK-MEL-5 melanoma"}, "IGROV1 ovarian": {"tested_on": "IGROV1 ovarian"}, "M14 melanoma": {"tested_on": "M14 melanoma"}, "UACC-62 melanoma": {"tested_on": "UACC-62 melanoma"}, "HT29 colon": {"tested_on": "HT29 colon"}, "UO-31 renal": {"tested_on": "UO-31 renal"}, "COLO 205 colon": {"tested_on": "COLO 205 colon"}, "HL-60(TB) leukemia": {"tested_on": "HL-60(TB) leukemia"}, "KM12 colon": {"tested_on": "KM12 colon"}, "HOP-92 NSCLC": {"tested_on": "HOP-92 NSCLC"}, "DU-145 prostate": {"tested_on": "DU-145 prostate"}, "CAKI-1 renal": {"tested_on": "CAKI-1 renal"}, "MDA-MB-435": {"tested_on": "MDA-MB-435"}, "SW-620 colon": {"tested_on": "SW-620 colon"}, "ACHN renal": {"tested_on": "ACHN renal"}, "HCT-116 colon": {"tested_on": "HCT-116 colon"}, "NCI-H226 lung": {"tested_on": "NCI-H226 lung"}, "PC-3 prostate": {"tested_on": "PC-3 prostate"}, "SF-295 CNS": {"tested_on": "SF-295 CNS"}, "TK-10 renal": {"tested_on": "TK-10 renal"}, "SF-268 CNS": {"tested_on": "SF-268 CNS"}, "SNB-19 CNS": {"tested_on": "SNB-19 CNS"}, "NCI-H460 lung": {"tested_on": "NCI-H460 lung"}, "RXF 393 renal": {"tested_on": "RXF 393 renal"}, "OVCAR-8 ovarian": {"tested_on": "OVCAR-8 ovarian"}, "K-562 leukemia": {"tested_on": "K-562 leukemia"}, "MCF7 breast": {"tested_on": "MCF7 breast"}, "SF-539 CNS": {"tested_on": "SF-539 CNS"}, "OVCAR-4 ovarian": {"tested_on": "OVCAR-4 ovarian"}, "SN12C renal": {"tested_on": "SN12C renal"}, "MDA-N": {"tested_on": "MDA-N"}, "OVCAR-3 ovarian": {"tested_on": "OVCAR-3 ovarian"}, "HOP-62 NSCLC": {"tested_on": "HOP-62 NSCLC"}, "SR leukemia": {"tested_on": "SR leukemia"}, "NCI/ADR-RES ovarian": {"tested_on": "NCI/ADR-RES ovarian"}, "LOX IMVI melanoma": {"tested_on": "LOX IMVI melanoma"}, "HCC-2998 colon": {"tested_on": "HCC-2998 colon"}, "NCI-H522 lung": {"tested_on": "NCI-H522 lung"}, "SK-MEL-2 melanoma": {"tested_on": "SK-MEL-2 melanoma"}, "EKVX NSCLC": {"tested_on": "EKVX NSCLC"}, "SK-MEL-28 melanoma": {"tested_on": "SK-MEL-28 melanoma"}, "A549 NSCLC": {"tested_on": "A549 NSCLC"}, "HCT-15 colon": {"tested_on": "HCT-15 colon"}, "MDA-MB-231 breast": {"tested_on": "MDA-MB-231 breast"}, "786-0 renal": {"tested_on": "786-0 renal"}, "UACC-257 melanoma": {"tested_on": "UACC-257 melanoma"}, "HS 578T breast": {"tested_on": "HS 578T breast"}, "SNB-75 CNS": {"tested_on": "SNB-75 CNS"}, "MOLT-4 leukemia": {"tested_on": "MOLT-4 leukemia"}, "OVCAR-5 ovarian": {"tested_on": "OVCAR-5 ovarian"}, "RPMI-8226 leukemia": {"tested_on": "RPMI-8226 leukemia"}, "NCI-H23 lung": {"tested_on": "NCI-H23 lung"}, "A498 renal": {"tested_on": "A498 renal"}, "U251 CNS": {"tested_on": "U251 CNS"}, "T-47D breast": {"tested_on": "T-47D breast"}}, "note": "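Each compound was tested at five concentrations against cells in 96-well plates for 48 hours. Abbreviation: GI50, concentration required for 50% inhibition of growth. TGI marks complete inhibition of growth.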"}
{"compound": "FC(F)(F)c1nc2ccc(SSc3ccc4nc(C(F)(F)F)[nH]c4c3)cc2[nH]1", "values": [{"measurement": "TGI", "setting": "BT-549 breast", "value": "> 100", "unit": "µM"}, {"measurement": "TGI", "setting": "SK-MEL-5 melanoma", "value": "> 100", "unit": "µM"}, {"measurement": "GI50", "setting": "IGROV1 ovarian", "value": "> 100", "unit": "µM"}, {"measurement": "TGI", "setting": "IGROV1 ovarian", "value": "> 100", "unit": "µM"}, {"measurement": "TGI", "setting": "M14 melanoma", "value": "> 100", "unit": "µM"}, {"measurement": "TGI", "setting": "UACC-62 melanoma", "value": "> 100", "unit": "µM"}, {"measurement": "GI50", "setting": "HT29 colon", "value": "> 100", "unit": "µM"}, {"measurement": "TGI", "setting": "HT29 colon", "value": "> 100", "unit": "µM"}, {"measurement": "TGI", "setting": "UO-31 renal", "value": "> 100", "unit": "µM"}, {"measurement": "TGI", "setting": "COLO 205 colon", "value": "> 100", "unit": "µM"}, {"measurement": "TGI", "setting": "HL-60(TB) leukemia", "value": "> 100", "unit": "µM"}, {"measurement": "GI50", "setting": "KM12 colon", "value": "> 100", "unit": "µM"}, {"measurement": "TGI", "setting": "KM12 colon", "value": "> 100", "unit": "µM"}, {"measurement": "GI50", "setting": "HOP-92 NSCLC", "value": "> 100", "unit": "µM"}, {"measurement": "TGI", "setting": "HOP-92 NSCLC", "value": "> 100", "unit": "µM"}, {"measurement": "GI50", "setting": "DU-145 prostate", "value": "> 100", "unit": "µM"}, {"measurement": "TGI", "setting": "DU-145 prostate", "value": "> 100", "unit": "µM"}, {"measurement": "GI50", "setting": "CAKI-1 renal", "value": "> 100", "unit": "µM"}, {"measurement": "TGI", "setting": "CAKI-1 renal", "value": "> 100", "unit": "µM"}, {"measurement": "TGI", "setting": "MDA-MB-435", "value": "> 100", "unit": "µM"}, {"measurement": "TGI", "setting": "SW-620 colon", "value": "> 100", "unit": "µM"}, {"measurement": "TGI", "setting": "ACHN renal", "value": "> 100", "unit": "µM"}, {"measurement": "GI50", "setting": "HCT-116 colon", "value": "> 100", "unit": "µM"}, {"measurement": "TGI", "setting": "HCT-116 colon", "value": "> 100", "unit": "µM"}, {"measurement": "GI50", "setting": "NCI-H226 lung", "value": "> 100", "unit": "µM"}, {"measurement": "TGI", "setting": "NCI-H226 lung", "value": "> 100", "unit": "µM"}, {"measurement": "TGI", "setting": "PC-3 prostate", "value": "> 100", "unit": "µM"}, {"measurement": "TGI", "setting": "SF-295 CNS", "value": "> 100", "unit": "µM"}, {"measurement": "TGI", "setting": "TK-10 renal", "value": "> 100", "unit": "µM"}, {"measurement": "GI50", "setting": "SF-268 CNS", "value": "> 100", "unit": "µM"}, {"measurement": "TGI", "setting": "SF-268 CNS", "value": "> 100", "unit": "µM"}, {"measurement": "GI50", "setting": "SNB-19 CNS", "value": "> 100", "unit": "µM"}, {"measurement": "TGI", "setting": "SNB-19 CNS", "value": "> 100", "unit": "µM"}, {"measurement": "TGI", "setting": "NCI-H460 lung", "value": 75.1, "unit": "µM"}, {"measurement": "GI50", "setting": "RXF 393 renal", "value": "> 100", "unit": "µM"}, {"measurement": "TGI", "setting": "RXF 393 renal", "value": "> 100", "unit": "µM"}, {"measurement": "TGI", "setting": "OVCAR-8 ovarian", "value": "> 100", "unit": "µM"}, {"measurement": "TGI", "setting": "K-562 leukemia", "value": "> 100", "unit": "µM"}, {"measurement": "TGI", "setting": "MCF7 breast", "value": "> 100", "unit": "µM"}, {"measurement": "TGI", "setting": "SF-539 CNS", "value": "> 100", "unit": "µM"}, {"measurement": "TGI", "setting": "OVCAR-4 ovarian", "value": "> 100", "unit": "µM"}, {"measurement": "TGI", "setting": "SN12C renal", "value": "> 100", "unit": "µM"}, {"measurement": "TGI", "setting": "MDA-N", "value": "> 100", "unit": "µM"}, {"measurement": "TGI", "setting": "OVCAR-3 ovarian", "value": "> 100", "unit": "µM"}, {"measurement": "TGI", "setting": "HOP-62 NSCLC", "value": "> 100", "unit": "µM"}, {"measurement": "TGI", "setting": "SR leukemia", "value": "> 100", "unit": "µM"}, {"measurement": "GI50", "setting": "NCI/ADR-RES ovarian", "value": "> 100", "unit": "µM"}, {"measurement": "TGI", "setting": "NCI/ADR-RES ovarian", "value": "> 100", "unit": "µM"}, {"measurement": "TGI", "setting": "LOX IMVI melanoma", "value": "> 100", "unit": "µM"}, {"measurement": "TGI", "setting": "HCC-2998 colon", "value": "> 100", "unit": "µM"}, {"measurement": "TGI", "setting": "NCI-H522 lung", "value": "> 100", "unit": "µM"}, {"measurement": "GI50", "setting": "SK-MEL-2 melanoma", "value": "> 100", "unit": "µM"}, {"measurement": "TGI", "setting": "SK-MEL-2 melanoma", "value": "> 100", "unit": "µM"}, {"measurement": "GI50", "setting": "EKVX NSCLC", "value": "> 100", "unit": "µM"}, {"measurement": "TGI", "setting": "EKVX NSCLC", "value": "> 100", "unit": "µM"}, {"measurement": "GI50", "setting": "SK-MEL-28 melanoma", "value": "> 100", "unit": "µM"}, {"measurement": "TGI", "setting": "SK-MEL-28 melanoma", "value": "> 100", "unit": "µM"}, {"measurement": "TGI", "setting": "A549 NSCLC", "value": "> 100", "unit": "µM"}, {"measurement": "TGI", "setting": "HCT-15 colon", "value": "> 100", "unit": "µM"}, {"measurement": "TGI", "setting": "MDA-MB-231 breast", "value": 71.3, "unit": "µM"}, {"measurement": "TGI", "setting": "786-0 renal", "value": "> 100", "unit": "µM"}, {"measurement": "TGI", "setting": "UACC-257 melanoma", "value": "> 100", "unit": "µM"}, {"measurement": "GI50", "setting": "HS 578T breast", "value": "> 100", "unit": "µM"}, {"measurement": "TGI", "setting": "HS 578T breast", "value": "> 100", "unit": "µM"}, {"measurement": "GI50", "setting": "SNB-75 CNS", "value": "> 100", "unit": "µM"}, {"measurement": "TGI", "setting": "SNB-75 CNS", "value": "> 100", "unit": "µM"}, {"measurement": "TGI", "setting": "MOLT-4 leukemia", "value": "> 100", "unit": "µM"}, {"measurement": "TGI", "setting": "OVCAR-5 ovarian", "value": "> 100", "unit": "µM"}, {"measurement": "TGI", "setting": "RPMI-8226 leukemia", "value": 65, "unit": "µM"}, {"measurement": "TGI", "setting": "NCI-H23 lung", "value": "> 100", "unit": "µM"}, {"measurement": "GI50", "setting": "A498 renal", "value": "> 100", "unit": "µM"}, {"measurement": "TGI", "setting": "A498 renal", "value": "> 100", "unit": "µM"}, {"measurement": "TGI", "setting": "U251 CNS", "value": "> 100", "unit": "µM"}, {"measurement": "TGI", "setting": "T-47D breast", "value": "> 100", "unit": "µM"}]}
